“Also recorded” adds a separate entry of the source.
Assays:
MCHR1 [1] = target: MCHR1; design: method as in PMID 28808288; details: previous experiments; read-out: Affinity to MCHR1 (Ki); cited from earlier work
[2] = Ex vivo metabolites in rat whole blood (radio-HPLC); details: for Metabolism in rat blood: ex vivo, result in words
Procedure: For the analysis of potential radiometabolites, blood samples (50–80 μl) from rats were withdrawn at 10 and 45 min for [^11C]SNAP-7941 and at 10, 30, and 60 min for [^18F]FE@SNAP and immediately subjected to the equivalent amount of acetonitrile, homogenized, and stored on ice before processing. Additionally, [^18F]FE@SNAP was administered to three rats, which were sacrificed after 45 min. Whole brains were harvested and homogenized with equivalent amounts (500–800 μl) of acetonitrile and 0.9 % saline solution using an ULTRA-TURRAX® (T25 basic, IKA Laboratory Equipment, Staufen, Germany). Subsequently, blood and brain were centrifuged (23,000 ×g, 4 min, 4 °C; Hettich Universal 30RF, Tuttlingen, Germany), and the obtained supernatant was analyzed by an analytical HPLC equipped with a radioactivity detector (radio-HPLC) (stationary phase: Chromolith® Performance RP-18e, 100–4.6 mm; precolumn: Chromolith® Guard Cartridge RP-18e, 5–4.6 mm; Merck, Darmstadt, Germany), mobile phase: (water/acetic acid 97.5/2.5 v/v; 2.5 g/l ammonium acetate; pH 3.5)/acetonitrile 70/30 v/v; flow: 1 ml/min, λ = 254 nm). The ratio between metabolite and intact radiotracer was calculated using quantitative HPLC analysis.

[3] = design: method as in earlier work; details: ultrafiltration, human pooled plasma; ref 30 and 34 (table), 32 and 36; cited from earlier work
[4] = target: T1, human serum albumin (HSA) (Homo sapiens, UniProt P02768); test: Plasma protein binding using bioaffinity chromatography (CHIRALPAK HSA); assay type: in vitro ADME; details: human; bioaffinity chromatography on HSA stationary phase; read-out: Plasma protein binding (%PPB) / Binding to human serum albumin (converted)
T1 construct: purchased Daicel Chemical Industries CHIRALPAK HSA, column-batch H13L-2405
Procedure: The binding of (±)-SNAP-7941 and FE@SNAP to human serum albumin (HSA) was examined by bioaffinity chromatography according to a previously published manuscript. In short, the analytes were diluted in 2-propanol and ammonium acetate buffer (0.5 mg/ml) and injected on the CHIRALPAK®HSA stationary phase (50 × 3 mm, 5 μm pore size, column-batch: H13L-2405, Daicel Chemical Industries, West Chester, PA, USA). Prior the experiments, the column was calibrated with reference standards, and the resulting regression equation was used to convert the logarithmic capacity factors (log(k′)) to the percent of plasma protein binding (%PPB). The calibration curves, as well as the experiments, were performed by triplicate injections and at least three times.

MCHR1 [5] = target: T2, MCHR1 (Rattus norvegicus, UniProt P97639); test: Ex vivo biodistribution, vehicle vs displacement with (±)-SNAP-7941; assay type: in vivo; details: 15 mg/kg (±)-SNAP-7941
T2 construct: from tissue; host or cells: living Sprague-Dawley rats (PET) and their organs after sacrifice
Text: After the imaging studies, the animals were sacrificed by decapitation; blood and tissues were removed and collected in tubes, weighed, and subjected to radioactivity measurements in a Gamma Counter (2480 WIZARD^2, PerkinElmer, Waltham, MA, USA). Values were normalized to the applied dose, the organ, and body weight and expressed as the standardized uptake value (SUV [g/ml]).

[6] = 10 min after radiotracer application

T2 sequence (P97639 whole entry): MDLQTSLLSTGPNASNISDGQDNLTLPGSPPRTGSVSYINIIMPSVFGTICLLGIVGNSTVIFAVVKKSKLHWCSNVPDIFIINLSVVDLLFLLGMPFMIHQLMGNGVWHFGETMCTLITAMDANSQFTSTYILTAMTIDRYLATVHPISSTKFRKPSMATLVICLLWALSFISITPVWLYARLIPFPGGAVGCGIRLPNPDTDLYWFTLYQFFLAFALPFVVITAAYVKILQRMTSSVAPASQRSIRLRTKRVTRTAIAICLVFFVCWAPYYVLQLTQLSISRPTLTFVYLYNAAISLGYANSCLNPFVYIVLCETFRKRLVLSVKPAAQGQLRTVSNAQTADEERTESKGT
T1 sequence (P02768 25-609): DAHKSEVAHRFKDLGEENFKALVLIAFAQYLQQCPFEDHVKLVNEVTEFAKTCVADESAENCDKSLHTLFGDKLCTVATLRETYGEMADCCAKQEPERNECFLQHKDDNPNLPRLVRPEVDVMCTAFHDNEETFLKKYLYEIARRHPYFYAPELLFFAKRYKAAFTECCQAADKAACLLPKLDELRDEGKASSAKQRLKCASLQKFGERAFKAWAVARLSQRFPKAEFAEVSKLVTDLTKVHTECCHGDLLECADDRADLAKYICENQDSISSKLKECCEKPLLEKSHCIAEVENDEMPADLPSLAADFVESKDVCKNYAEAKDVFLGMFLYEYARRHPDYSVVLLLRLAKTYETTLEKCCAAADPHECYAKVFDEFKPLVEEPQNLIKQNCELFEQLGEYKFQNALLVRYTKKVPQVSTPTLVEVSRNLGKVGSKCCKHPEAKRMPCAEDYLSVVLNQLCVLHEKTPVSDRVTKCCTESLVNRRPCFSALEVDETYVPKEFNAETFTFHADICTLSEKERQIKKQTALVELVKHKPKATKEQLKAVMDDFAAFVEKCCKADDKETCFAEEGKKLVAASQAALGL

Row | SMILES | Ki (MCHR1 [1]) [nM] | intact tracer in rat whole blood [2, 6] [%] | intact tracer in rat whole blood ([2]; 45 min) [%] | Metabolism in rat blood [2] | Plasma free fraction (human) [3] [%] | fraction unbound at 0.5 mg/ml [4] | difference in colon uptake between vehicle and displacement groups (MCHR1 [5]) | difference in eye uptake between vehicle and displacement groups (MCHR1 [5]) | difference in pancreas uptake between vehicle and displacement groups (MCHR1 [5]) | overall biodistribution: uptake in target regions after displacement (MCHR1 [5]) | intact tracer in rat whole blood ([2]; 30 min after administration) [%] | intact tracer in rat whole blood ([2]; 60 min) [%]
1 | COCC1=C(C(=O)O[11CH3])C(c2ccc(F)c(F)c2)N(C(=O)NCCCN2CCC(c3cccc(NC(C)=O)c3)CC2)C(=O)N1 (stereo not drawn) [[^11C]SNAP-7941] | 3.91 ± 0.74 | 93.52 ± 0.1 | 93.74 ± 6.2 | high metabolic stability; also recorded: Stable | 20.96 ± 1 | 0.2 | Statistically significant differences | Statistically significant differences | Statistically significant differences | decreased uptake |  | 
2 | COCC1=C(C(=O)OCC[18F])C(c2ccc(F)c(F)c2)N(C(=O)NCCCN2CCC(c3cccc(NC(C)=O)c3)CC2)C(=O)N1 (stereo not drawn) [[^18F]FE@SNAP] | 9.98 ± 1.12 | 38.40 ± 2.3 |  | Rapidly metabolized | 12.6 ± 0.2 | 0.23 | no statistically significant difference | significant differences | significant differences | decreased uptake | 31.59 ± 4.0 | 14.42 ± 3.3
